Entries after “also recorded” stand apart in the source; their conditions may differ.
Experiments:
[1] = test system: Gibco hiPSCs; assay: LPM differentiation assay (FOXF1 high content imaging), Gibco hiPSCs; conditions: for IC50: Homo sapiens, 48 h, read-out: IC50 (±SEM) in LPM differentiation assay
Protocol: (§1) hiPSCs (Gibco or XCL-1 clones) were grown in mTeSR-1 on Matrigel, passaged into small clumps with Versene (4.5 min under normal culture conditions), counted as a single-cell suspension as described above, and seeded as small clumps at approximately 10,000 cells/well (30,000 cells/cm^2, ~15% confluence) in 100 µL mTeSR1 on Matrigel-coated µClear® 96-well plates (Greiner) for 1 d under normal culture conditions. On the day after seeding, the medium was replaced with 100 µL/well of mTeSR-1 (control) or APEL2 + GSKi containing either DMSO or diluted compounds (for a final DMSO concentration of 0.2%). The same conditions were replenished the following day for a total of 2 d of differentiation, and the following day (3 d after seeding), the medium was aspirated, and hiPSCs were fixed in 10% NBF for 15 min at room temperature.
(§2) Immunofluorescence staining was carried out by fixing/permeabilizing cells overnight in blocking buffer containing 3% BSA (Sigma) in DPBS-T, which contains DPBS + Ca^2+//Mg^2+ with 0.3% Triton-X100 (Sigma). Fixed and permeabilized cells were incubated in primary antibodies diluted (as noted in Table 1) in antibody buffer, consisting of 1% BSA in DPBS-T, overnight at 4 °C.
(§3) Cells were washed in blocking buffer for >6 hours at 4 °C and subsequently incubated in secondary antibody diluted in antibody buffer overnight at 4 °C. Secondary antibodies were washed out in antibody buffer for >4 h at 4 °C, and hiPSCs were counterstained with DAPI (Fisher) at 10 µg/mL in DPBS-T for 2 h. hiPSCs were washed in DPBS-T for >2 h at 4 °C, and immediately before imaging, the DPBS-T was replaced with DPBS. […] Chemical dose-response experiments and experiments examining the time-course of marker expression during LPM differentiation were imaged at 10X magnification using the Cellomics ArrayScan or CellInsight Cx7 LZR High Content Screening Platform and HCS Studio Cell Analysis Software (Thermo Fisher). An artificial threshold was uniformly applied to all images to generate the percentage of DAPI+ nuclei that stained positively for FOXF1 or NANOG. Thresholding for FOXF1 and T was performed relative to undiffer-entiated hiPSCs, and thresholding for SALL4 and OCT4 was performed relative to a non-expressing cell type (human primary endothelial cells). Settings for image acquisition and processing were uniformly applied between XCL-1 clones. […] Experiments were repeated in quadruplicate unless otherwise stated, and data are presented as mean ± SEM. Nonlinear regression analysis was performed using the 4-parameter [inhibitor]-vs-response curve fitting algorithm in Prism (GraphPad).

[2] = molecular target: T1, SALL4 (Homo sapiens, UniProt Q96SW2+Q9UJQ4); assay: SALL4 nuclear protein expression (MFI) by high content imaging, Gibco hiPSCs; assay type: cell-based
T1 construct: Unmodified Gibco hiPSCs were either differentiated in APEL2 + GSKi or maintained in mTeSR1, and SALL4 nuclear protein expression was monitored; endogenous in cells; host or cells: Gibco hiPSCs; XCL-1 SALL4 mock hiPSC clone
Text: High content imaging analysis of SALL4 immunofluorescence with DAPI counterstaining in hiPSCs. […] Data represent the mean +/− SEM from 2 independent experiments.

[3] = test system: Gibco hiPSCs; assay: qRT-PCR of 3D fibrin cultures of hiPSCs during LPM differentiation; assay type: cell-based, human; conditions: thalidomide 20 µM, atRA 3 µM, 2 d in APEL2+GSKi, fibrin 3D
Protocol: For 3D differentiation studies, Gibco hiPSCs were encapsulated in fibrin at 2–4 × 10^6 cells/mL. hiPSCs were passaged with Versene (as described above) and were suspended as small clumps in a solution composed of a 1:4:5:10 dilution of 200 mM CaCl2 in DI water, 50 U/mL human thrombin (Sigma) in 0.1% cell culture BSA in DI water, DPBS, and hiPSC suspension in mTeSR1. The hiPSC suspension was mixed by pipetting, and 0.5 µL droplets of suspended hiPSCs were plated at the bottom of each well of a round-bottom sterile polypropylene plate. hiPSC suspensions were subsequently diluted 5-fold by pipetting up and down in each well with 2 µL of 10 mg/mL human fibrinogen (Sigma) in DPBS (sterile filtered prior to use). Fibrin clot formation proceeded for 10 minutes at room temperature prior to addition of mTeSR-1 and incubation under normal culture conditions overnight. […] For chondrogenic differentiation experiments, cells were cultured in APEL2 + GSKi for the described duration, followed by culture in ACF MesenCult chondrogenic differentiation medium (Stem Cell Technologies) for 17–20 days under normal culture conditions. […]
(black bars). Data are presented as mean ± SEM of the log2 fold change calculated from each sample relative to the ACTB housekeeper control and the DMSO control (normalized via the 2-ΔΔCT method) from three independent experiments. […]

[4] = test system: XCL-1 hiPSC SALL4^G416A; assay: LPM differentiation assay (FOXF1 high content imaging), XCL-1 SALL4^G416A clone; conditions: Homo sapiens, 48 h, read-out: IC50 (±SEM) in LPM differentiation assay
Protocol: as §1, §2, §3
In addition, XCL-1 hiPSCs were engineered with CRISPR/Cas9 to express a homozygous SALL4 G416A mutation (hereafter referred to as the SALL4^G416A clone), and the homozygous SALL4 G416A mutation was confirmed by next-generation sequencing (Supplementary Fig. 2).

T1 sequence (Q9UJQ4 whole entry): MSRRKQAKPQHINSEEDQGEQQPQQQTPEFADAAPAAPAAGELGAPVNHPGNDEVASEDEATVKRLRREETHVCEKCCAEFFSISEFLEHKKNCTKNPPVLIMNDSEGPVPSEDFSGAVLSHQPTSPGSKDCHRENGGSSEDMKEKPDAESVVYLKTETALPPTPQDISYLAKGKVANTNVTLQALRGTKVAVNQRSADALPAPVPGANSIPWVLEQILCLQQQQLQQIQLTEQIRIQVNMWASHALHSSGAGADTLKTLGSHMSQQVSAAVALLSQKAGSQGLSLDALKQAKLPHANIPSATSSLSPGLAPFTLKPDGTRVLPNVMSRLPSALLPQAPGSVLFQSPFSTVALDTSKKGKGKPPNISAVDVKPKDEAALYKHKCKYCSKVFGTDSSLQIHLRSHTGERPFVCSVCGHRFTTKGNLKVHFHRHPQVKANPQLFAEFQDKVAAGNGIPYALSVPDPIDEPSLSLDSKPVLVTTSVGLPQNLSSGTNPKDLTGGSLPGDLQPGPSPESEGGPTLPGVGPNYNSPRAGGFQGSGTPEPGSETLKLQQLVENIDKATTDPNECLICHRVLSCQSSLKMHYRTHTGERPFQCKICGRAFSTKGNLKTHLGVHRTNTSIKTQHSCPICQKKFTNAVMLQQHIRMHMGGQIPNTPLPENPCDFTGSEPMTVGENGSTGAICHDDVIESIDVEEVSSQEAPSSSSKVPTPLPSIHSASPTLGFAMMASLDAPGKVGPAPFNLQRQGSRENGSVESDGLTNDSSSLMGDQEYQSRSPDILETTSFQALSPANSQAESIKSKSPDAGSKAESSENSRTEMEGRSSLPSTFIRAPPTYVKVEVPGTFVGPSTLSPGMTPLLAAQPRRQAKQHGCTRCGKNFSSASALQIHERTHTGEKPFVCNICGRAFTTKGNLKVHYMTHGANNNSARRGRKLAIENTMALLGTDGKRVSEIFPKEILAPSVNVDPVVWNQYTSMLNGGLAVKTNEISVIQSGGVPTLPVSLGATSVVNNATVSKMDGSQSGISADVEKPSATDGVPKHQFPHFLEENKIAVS
T1 sequence (Q96SW2 whole entry): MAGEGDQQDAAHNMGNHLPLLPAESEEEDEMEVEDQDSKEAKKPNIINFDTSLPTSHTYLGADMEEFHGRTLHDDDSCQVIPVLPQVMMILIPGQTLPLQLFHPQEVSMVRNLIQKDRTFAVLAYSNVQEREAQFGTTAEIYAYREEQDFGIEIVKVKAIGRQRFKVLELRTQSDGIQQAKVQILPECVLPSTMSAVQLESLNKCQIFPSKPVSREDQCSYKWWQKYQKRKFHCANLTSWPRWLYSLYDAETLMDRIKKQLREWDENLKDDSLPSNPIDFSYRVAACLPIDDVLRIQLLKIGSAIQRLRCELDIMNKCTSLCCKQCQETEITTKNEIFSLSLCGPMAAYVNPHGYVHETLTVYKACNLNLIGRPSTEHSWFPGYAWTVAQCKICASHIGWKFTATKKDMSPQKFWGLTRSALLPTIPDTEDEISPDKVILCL
T1 sequence (Q16531 whole entry partner): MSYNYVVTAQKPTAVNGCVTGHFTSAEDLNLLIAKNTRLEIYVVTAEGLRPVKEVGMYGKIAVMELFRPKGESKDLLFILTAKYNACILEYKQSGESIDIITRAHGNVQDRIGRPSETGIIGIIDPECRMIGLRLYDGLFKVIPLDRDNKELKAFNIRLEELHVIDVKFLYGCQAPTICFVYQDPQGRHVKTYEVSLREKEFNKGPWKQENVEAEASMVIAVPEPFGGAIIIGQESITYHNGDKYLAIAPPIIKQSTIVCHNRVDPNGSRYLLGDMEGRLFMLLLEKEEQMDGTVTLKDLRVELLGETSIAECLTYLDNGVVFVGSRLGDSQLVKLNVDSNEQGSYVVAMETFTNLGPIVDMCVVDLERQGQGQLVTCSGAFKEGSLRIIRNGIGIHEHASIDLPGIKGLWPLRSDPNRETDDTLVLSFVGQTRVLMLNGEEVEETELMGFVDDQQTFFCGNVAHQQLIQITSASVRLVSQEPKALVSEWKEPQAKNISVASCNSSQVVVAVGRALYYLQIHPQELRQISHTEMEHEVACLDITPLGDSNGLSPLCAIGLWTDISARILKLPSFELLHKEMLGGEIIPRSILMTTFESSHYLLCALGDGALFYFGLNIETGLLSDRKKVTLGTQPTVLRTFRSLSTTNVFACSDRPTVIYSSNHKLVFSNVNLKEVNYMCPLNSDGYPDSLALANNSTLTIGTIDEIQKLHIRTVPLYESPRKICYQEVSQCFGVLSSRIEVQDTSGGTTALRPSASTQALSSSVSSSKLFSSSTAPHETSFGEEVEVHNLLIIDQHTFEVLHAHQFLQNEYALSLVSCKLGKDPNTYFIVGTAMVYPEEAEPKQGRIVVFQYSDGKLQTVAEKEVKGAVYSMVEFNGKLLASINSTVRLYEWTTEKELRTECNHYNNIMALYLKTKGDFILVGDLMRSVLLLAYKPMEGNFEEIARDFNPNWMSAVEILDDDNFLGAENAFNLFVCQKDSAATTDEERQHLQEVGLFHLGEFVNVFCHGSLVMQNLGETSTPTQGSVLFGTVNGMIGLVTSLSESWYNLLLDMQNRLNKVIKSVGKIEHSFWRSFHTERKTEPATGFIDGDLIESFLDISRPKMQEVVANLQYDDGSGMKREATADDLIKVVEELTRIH

Row | Structure (SMILES) | IC50 [1] | reduction of %FOXF1+ cells via high content imaging ([1]; thalidomide at 20 µM, atRA at 3 µM, during LPM differentiation) | time-course of SALL4 MFI ([2]; 20 µM, Gibco hiPSCs in mTeSR1 or APEL2+GSKi, 2, 8 and 24 h after dosing) | effect on marker gene expression in 3D LPM differentiation [3] | IC50 [4] | effect on SALL4 MFI ([2]; Gibco hiPSCs, 8 h of treatment, dose-response)
1 | O=C1CCC(N2C(=O)c3ccccc3C2=O)C(=O)N1 (stereo not drawn) [Thalidomide, thalidomide] | 0.31 ± 0.19 µM | 30% | rapid decline in SALL4 MFI 2 h after dosing | reduced FOXF1 and KDR expression | > 50 µM | 
2 | CC1=C(/C=C/C(C)=C/C=C/C(C)=C/C(=O)O)C(C)(C)CCC1 [atRA, all-trans retinoic acid] | 0.82 ± 0.78 µM |  |  | reduced FOXF1 and KDR expression; also recorded: reduced the expression of TBXT and GATA4 | 9.1 ± 5.9 µM | did not reduce SALL4 MFI
